Experimental data from the supplement of paper PMC11451515.

Legend:
Details in all cases: 48 h
SEM cells [1] = experiment: AUC of viability dose-response curve (% viability x log10 dose units); higher = less sensitive
Procedure, shortened: (§1)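 Area under the curve was integrated by trapezoidal rule from a log-logistic fit of normalised viability, with curves exceeding full viability scaled and quality-control failures removed. The fit had four parameters over log10 doses. Viability came from CellTiter-Glo One luminescence, normalised per plate to DMSO and cell-free wells, after leukemia cells adapted to each medium (500 or 1000 cells/well, 1536-well plates) were exposed to library compounds in DMSO for 48 h at 37°C. The 11 threefold doses ran from 47 μM to 0.79 nM.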

NOMO1 [2] = experiment: as above
Procedure, shortened: as §1

P12-Ichikawa [3] = experiment: as above
Procedure, shortened: as §1

SEM cells [4] = experiment: cell viability relative to DMSO control; higher = less cytotoxic
Procedure, shortened: (§2)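 Viability, reported as a per-plate percentage of DMSO wells with cell-free wells as background, came from CellTiter-Glo One luminescence. Reading took place after 48 h at 37°C. Before that, NOMO1 or SEM (500 cells/well) or P12-Ichikawa (1000 cells/well) leukemia cells, adapted for at least four passages in each medium, were seeded in 1536-well plates (5 μl) and pin-dosed with library compounds in DMSO, 47 μM to 0.79 nM over 11 threefold points.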

NOMO1 [5] = experiment: as above
Procedure, shortened: as §2

P12-Ichikawa [6] = experiment: as above
Procedure, shortened: as §2

CCOC(=O)c1c(CSc2ccccc2)n(C)c2cc(Br)c(O)c(CN(C)C)c12
AUC of viability dose-response curve
Details	NOMO1 [2]	P12-Ichikawa [3]	SEM cells [1]
HPLM + 10% dialyzed FBS	471	464	463
RPMI 5 mM glucose + 10% FBS	461	461	459
RPMI 5 mM glucose + 10% dialyzed FBS	450	464	469

cell viability [%]
Details	NOMO1 [5]	P12-Ichikawa [6]	SEM cells [4]
HPLM + 10% dialyzed FBS, 0.000781 µM	129	121	89.7
HPLM + 10% dialyzed FBS, 0.00234 µM	121	119	94.8
HPLM + 10% dialyzed FBS, 0.00702 µM	114	128	96.4
HPLM + 10% dialyzed FBS, 0.0211 µM	133	126	109
HPLM + 10% dialyzed FBS, 0.0632 µM	127	123	96.2
HPLM + 10% dialyzed FBS, 0.19 µM	128	127	102
HPLM + 10% dialyzed FBS, 0.569 µM	130	118	97.3
HPLM + 10% dialyzed FBS, 1.71 µM	120	115	103
HPLM + 10% dialyzed FBS, 5.12 µM	128	124	82.5
HPLM + 10% dialyzed FBS, 15.4 µM	120	115	108
HPLM + 10% dialyzed FBS, 46.1 µM	104	109	88.6
RPMI 5 mM glucose + 10% FBS, 0.000781 µM	–	118	107
RPMI 5 mM glucose + 10% FBS, 0.00234 µM	–	127	114
RPMI 5 mM glucose + 10% FBS, 0.00702 µM	–	122	109
RPMI 5 mM glucose + 10% FBS, 0.0211 µM	–	126	103
RPMI 5 mM glucose + 10% FBS, 0.0632 µM	–	128	104
RPMI 5 mM glucose + 10% FBS, 0.19 µM	–	123	128
RPMI 5 mM glucose + 10% FBS, 0.569 µM	–	125	125
RPMI 5 mM glucose + 10% FBS, 1.71 µM	–	112	129
RPMI 5 mM glucose + 10% FBS, 5.12 µM	–	112	103
RPMI 5 mM glucose + 10% FBS, 15.4 µM	–	113	101
RPMI 5 mM glucose + 10% FBS, 46.1 µM	–	73.5	63.7
RPMI 5 mM glucose + 10% dialyzed FBS, 0.000781 µM	119	121	94.9
RPMI 5 mM glucose + 10% dialyzed FBS, 0.00234 µM	119	119	114
RPMI 5 mM glucose + 10% dialyzed FBS, 0.00702 µM	124	125	101
RPMI 5 mM glucose + 10% dialyzed FBS, 0.0211 µM	129	129	104
RPMI 5 mM glucose + 10% dialyzed FBS, 0.0632 µM	114	123	111
RPMI 5 mM glucose + 10% dialyzed FBS, 0.19 µM	124	118	97.5
RPMI 5 mM glucose + 10% dialyzed FBS, 0.569 µM	124	127	94.7
RPMI 5 mM glucose + 10% dialyzed FBS, 1.71 µM	129	118	109
RPMI 5 mM glucose + 10% dialyzed FBS, 5.12 µM	108	124	113
RPMI 5 mM glucose + 10% dialyzed FBS, 15.4 µM	92.8	113	109
RPMI 5 mM glucose + 10% dialyzed FBS, 46.1 µM	69.1	76.3	70.5

Cc1n[nH]c2ccc(-c3cncc(OC[C@@H](N)Cc4ccccc4)c3)cc12
AUC of viability dose-response curve
Details	NOMO1 [2]	P12-Ichikawa [3]	SEM cells [1]
HPLM + 10% dialyzed FBS	324	371	312
RPMI 5 mM glucose + 10% FBS	365	335	341
RPMI 5 mM glucose + 10% dialyzed FBS	348	355	347

cell viability [%]
Details	HPLM + 10% dialyzed FBS	RPMI 5 mM glucose + 10% FBS	RPMI 5 mM glucose + 10% dialyzed FBS
NOMO1 [5], 0.000781 µM	–	127	134
NOMO1 [5], 0.00234 µM	–	118	124
NOMO1 [5], 0.00702 µM	–	113	120
NOMO1 [5], 0.0211 µM	–	125	114
NOMO1 [5], 0.0632 µM	–	120	133
NOMO1 [5], 0.19 µM	–	113	83.5
NOMO1 [5], 0.569 µM	–	110	109
NOMO1 [5], 1.71 µM	–	99.7	77.9
NOMO1 [5], 5.12 µM	–	23.6	15.1
NOMO1 [5], 15.4 µM	–	12.9	8.65
NOMO1 [5], 46.1 µM	–	5.8	4.35
SEM cells [4], 0.000781 µM	117	105	–
SEM cells [4], 0.00234 µM	124	105	–
SEM cells [4], 0.00702 µM	117	116	–
SEM cells [4], 0.0211 µM	108	110	–
SEM cells [4], 0.0632 µM	123	102	–
SEM cells [4], 0.19 µM	98.2	98	–
SEM cells [4], 0.569 µM	71.6	92.7	–
SEM cells [4], 1.71 µM	56.3	64	–
SEM cells [4], 5.12 µM	14.5	7.19	–
SEM cells [4], 15.4 µM	5.34	4.27	–
SEM cells [4], 46.1 µM	4.07	3.39	–

CC(C)(C)NCC(O)c1ccc(O)c(CO)c1 (centres undefined)
AUC of viability dose-response curve
Details	NOMO1 [2]	P12-Ichikawa [3]	SEM cells [1]
HPLM + 10% dialyzed FBS	388	438	474
RPMI 5 mM glucose + 10% FBS	420	431	461
RPMI 5 mM glucose + 10% dialyzed FBS	399	442	470

cell viability [%]
Details	NOMO1 [5]	P12-Ichikawa [6]	SEM cells [4]
HPLM + 10% dialyzed FBS, 0.000781 µM	100	117	101
HPLM + 10% dialyzed FBS, 0.00234 µM	109	115	99.4
HPLM + 10% dialyzed FBS, 0.00702 µM	109	114	103
HPLM + 10% dialyzed FBS, 0.0211 µM	132	105	106
HPLM + 10% dialyzed FBS, 0.0632 µM	119	119	113
HPLM + 10% dialyzed FBS, 0.19 µM	114	121	102
HPLM + 10% dialyzed FBS, 0.569 µM	107	110	112
HPLM + 10% dialyzed FBS, 1.71 µM	70.5	97.8	106
HPLM + 10% dialyzed FBS, 5.12 µM	55.5	90.5	104
HPLM + 10% dialyzed FBS, 15.4 µM	47.8	86.5	109
HPLM + 10% dialyzed FBS, 46.1 µM	44.7	80	93.6
RPMI 5 mM glucose + 10% FBS, 0.000781 µM	102	101	118
RPMI 5 mM glucose + 10% FBS, 0.00234 µM	98.3	116	113
RPMI 5 mM glucose + 10% FBS, 0.00702 µM	105	121	115
RPMI 5 mM glucose + 10% FBS, 0.0211 µM	106	114	112
RPMI 5 mM glucose + 10% FBS, 0.0632 µM	112	111	108
RPMI 5 mM glucose + 10% FBS, 0.19 µM	99.9	113	125
RPMI 5 mM glucose + 10% FBS, 0.569 µM	107	103	109
RPMI 5 mM glucose + 10% FBS, 1.71 µM	79.2	103	95.5
RPMI 5 mM glucose + 10% FBS, 5.12 µM	78.1	84.4	107
RPMI 5 mM glucose + 10% FBS, 15.4 µM	64.7	71.4	108
RPMI 5 mM glucose + 10% FBS, 46.1 µM	51.4	68.3	111
RPMI 5 mM glucose + 10% dialyzed FBS, 0.000781 µM	102	94.9	96.9
RPMI 5 mM glucose + 10% dialyzed FBS, 0.00234 µM	109	108	112
RPMI 5 mM glucose + 10% dialyzed FBS, 0.00702 µM	115	109	109
RPMI 5 mM glucose + 10% dialyzed FBS, 0.0211 µM	114	106	124
RPMI 5 mM glucose + 10% dialyzed FBS, 0.0632 µM	110	105	115
RPMI 5 mM glucose + 10% dialyzed FBS, 0.19 µM	110	109	114
RPMI 5 mM glucose + 10% dialyzed FBS, 0.569 µM	92.8	102	111
RPMI 5 mM glucose + 10% dialyzed FBS, 1.71 µM	76.7	110	116
RPMI 5 mM glucose + 10% dialyzed FBS, 5.12 µM	65.3	80.8	120
RPMI 5 mM glucose + 10% dialyzed FBS, 15.4 µM	70.7	73.3	122
RPMI 5 mM glucose + 10% dialyzed FBS, 46.1 µM	47	68.4	114

O=C(Nc1nc2cccc(-c3ccc(CN4CC[S+](=O)([O-])CC4)cc3)n2n1)C1CC1
AUC of viability dose-response curve
Details	NOMO1 [2]	P12-Ichikawa [3]	SEM cells [1]
HPLM + 10% dialyzed FBS	440	455	441
RPMI 5 mM glucose + 10% FBS	449	454	446
RPMI 5 mM glucose + 10% dialyzed FBS	444	455	432

cell viability [%], SEM cells [4]
Details	RPMI 5 mM glucose + 10% FBS	RPMI 5 mM glucose + 10% dialyzed FBS
0.000781 µM	111	120
0.00234 µM	133	125
0.00702 µM	120	109
0.0211 µM	124	126
0.0632 µM	136	130
0.19 µM	146	152
0.569 µM	130	133
1.71 µM	121	124
5.12 µM	103	90.1
15.4 µM	107	94.6
46.1 µM	21.3	31.1
